Target: DB3 VH/K expressed as an ARM
Assay: Inhibition by free steroids of DB3 VH/K ARM binding to progesterone-coated beads
Set-up: species or system mouse
Conditions: free steroid added to DB3 ARM mixture
Method: FIG. 6. […] This supports the correct folding of the antibody fragment on the ribosome.
The free steroid inibitors were added to the DB3 ARM mixture in order to block binding to the progesterone-coated beads. They are progesterone-11α-hemisuccinate (HMS) (P11), progesterone-3-carboxymethyloxime (P3); progesterone-6-HMS (P6) and progesterone-21-HMS (P21). The inhibition of free DB3 VH/K in an ELISA reaction is shown on the right, with the efficiency of the steroids in the order P11>P3>P6>P21.

50% inhibition of DB3 VH/K ARM binding: 1 ng | IC50 (read-out: 50% inhibition of DB3 VH/K ARM binding): 2.5 nM
SMILES: CC(=O)[C@H]1CC[C@H]2[C@@H]3CCC4=CC(=O)CC[C@]4(C)[C@H]3[C@H](OC(=O)CCC(=O)O)C[C@]12C [progesterone-11α-HMS, progesterone-11α-hemisuccinate]
